# Data taken from patent US20220304992A1, “METHODS OF REJUVENATING AGED TISSUE BY INHIBITING 15-HYDROXYPROSTAGLANDIN DEHYDROGENASE (15-PGDH)” (The Board of Trustees of the Leland Stanford Junior …, priority 2019, published 2022).
# “Also recorded” adds a separate entry of the source.
# Key:
# Type in all cases: in vivo, mouse
# [1] = tested on: myofibers; assay: Myofiber cross-sectional area and fiber typing by immunofluorescence; conditions: aged mice, 1 month
# Protocol: We collected and prepared recipient Tibialis anterior (TA) or gastrocnemius (GA) muscle tissues for histology as previously described (5). We fixed transverse sections from muscles using 4% PFA, blocked and permeabilized using PBS/1% BSA/0.1% Triton X-100 and incubated with anti-LAMININ (Millipore, clone A5, catalog #05-206, 1:200) and then with AlexaFluor secondary Antibodies (Jackson ImmunoResearch Laboratories, 1:200) or wheat germ agglutinin-Alexa 647 conjugate (WGA, Thermo Fisher Scientific). We counterstained nuclei with DAPI (Invitrogen).
# We acquired images on a Zeiss 510 laser scanning confocal microscope (Carl Zeiss Microimaging) with 40x/0.9N.A. objective to capture multiple consecutive focal planes or using the KEYENCE BZ-X700 all-in-one fluorescence microscope (Keyence) with 20x/0.75 N.A. objectives. We analyzed the myofiber area using the Keyence Advanced Analysis Software. For cross sectional area the maximum cross sectional area of the muscle was quantified or at least 10 fields of LAMININ-stained myofiber cross-sections encompassing over 400 myofibers were captured for each mouse as above. […] The researchers performing the imaging acquisition and scoring were unaware of treatment condition given to sample groups analyzed. […]
# Images were acquired using KEYENCE BZ-X700 all in one fluorescence microscope with 20x/0.75 NA. objectives and individual fields were stitched and analyzed using Keyence Advanced Analysis Software.
# For cultured myotubes we performed fixation using 4% PFA, blocking and permeabilization using PBS/1% BSA/0.1% Triton X-100 and staining with primary antibodies anti-MYH (Thermo Fisher Scientific, catalog #14-6503-82, clone MF-20, 1:500) and then with AlexaFluor secondary Antibodies (Jackson ImmunoResearch Laboratories, 1:500). […] We acquired images using the KEYENCE BZ-X700 all-in-one fluorescence microscope (Keyence) with 20x/0.75 N.A. objectives. We analyzed the fiber area using the Keyence Advanced Analysis Software. […] The researchers performing the imaging acquisition and scoring were unaware of treatment condition given to sample groups analyzed.
# [2] = Muscle mass, plantar flexion tetanic force and treadmill endurance in aged and young C57BL/6 mice; conditions: young mice, daily i.p., 1 month
# Source text: (§1) We performed all experiments and protocols in compliance with the institutional guidelines of Stanford University and Administrative Panel on Laboratory Animal Care (APLAC). Mid (18 mo.) and aged (>24 mo.) mice C57BL/6 were obtained the US National Institute on Aging (NIA) for aged muscle studies, and young (2-4 mo.) wild-type C57BL/6 mice from Jackson Laboratory. Mice were maintained in specific-pathogen free housing on a 12-hour dark/light cycle for study duration.
# (§2) Time and distance to exhaustion was performed as previously described (4) for SW-treated mice and their controls (FIG. 3A).
# (§3) The peak isometric torque (N·mm) of the ankle plantarflexors was assessed as previously described (8,9). Briefly, the foot of anesthetized mice was placed on a footplate attached to a servomotor (model 300C-LR; Aurora Scientific). Two Pt-Ir electrode needles (Aurora Scientific) were inserted percutaneously were inserted subcutaneously over the tibial nerve, just posterior/posterior-medial to the knee. The ankle joint was secured at a 90° angle. The peak isometric torque was achieved by varying the current delivered to the tibial nerve at a frequency of 200 Hz and a 0.1-ms square wave pulse. We performed three tetanic measurements on each muscle, with 1 min recovery between each measurement. Data were collected with the Aurora Scientific Dynamic Muscle Data Acquisition and Analysis Software.
# (§4) We performed all experiments and protocols in compliance with the institutional guidelines of Stanford University and Administrative Panel on Laboratory Animal Care (APLAC). Middle aged (18-20 mo.) and aged (>24 mo.) mice C57BL/6 were obtained the US National Institute on Aging (NIA) for aged muscle studies, and young (2-4 mo.) wild-type C57BL/6 mice from Jackson Laboratory. INK-ATTAC mice were generated as previously described (1). INK-ATTAC healthspan assessments. INK-ATTAC mice were crossed onto the C57BL6/J genetic background and maintained in specific-pathogen free housing on a 12-hour dark/light cycle for study duration. At 12 months of age, male mice were either utilized for baseline healthspan assessments and terminal muscle harvest or randomized to receive twice-weekly vehicle or AP20187 (2 mg/kg intraperitoneal injection; B/B homodimerizer, Clontech) until assessment and sacrifice at 28 months of age (2). […] Time and distance to exhaustion was performed as previously described (4) for SW-treated mice and their controls. […]
# as §3, with “described (21, 22).” for “described (8,9).”, “percutaneously and” for “percutaneously were inserted”, “a 0.1—ms” for “a 0.1-ms”
# [3] = tested on: aged mice; assay: as above; conditions: aged (>24 mo) mice, daily i.p. 5 mg/kg, 1 month, 5 mg/kg
# Source text: as §1, §2, §3, §4
# as §3, with “described (21, 22).” for “described (8,9).”, “percutaneously and” for “percutaneously were inserted”, “a 0.1—ms” for “a 0.1-ms”
# [4] = tested on: aged mice with PTGDS knockdown; assay: SW treatment of aged mice with AAV9 shRNA knockdown of PTGDS; conditions: aged muscles, SW one month
# Protocol: Middle aged (18-20 mo.) and aged (>24 mo.) mice C57BL/6 were obtained the US National Institute on Aging (NIA) for aged muscle studies, and young (2-4 mo.) wild-type C57BL/6 mice from Jackson Laboratory. […] Time and distance to exhaustion was performed as previously described (4) for SW-treated mice and their controls.
# Overexpression of Hpgd (15-PGDH) was achieved by integrating AAV9 under CMV promoter and with eGFP under IRES (AA9-CMV-m-HPGD-IRES-eGFP) (Vector Biolabs). The control virus was AAV9-tMCK-eGFP-WPRE.
# The peak isometric torque (N·mm) of the ankle plantarflexors was assessed as previously described (21, 22). Briefly, the foot of anesthetized mice was placed on a footplate attached to a servomotor (model 300C-LR; Aurora Scientific). Two Pt-Ir electrode needles (Aurora Scientific) were inserted percutaneously and subcutaneously over the tibial nerve, just posterior/posterior-medial to the knee. The ankle joint was secured at a 90° angle. The peak isometric torque was achieved by varying the current delivered to the tibial nerve at a frequency of 200 Hz and a 0.1—ms square wave pulse. We performed three tetanic measurements on each muscle, with 1 min recovery between each measurement. Data were collected with the Aurora Scientific Dynamic Muscle Data Acquisition and Analysis Software.
compound,measurement,setting,value
"CCCC[S+]([O-])c1sc2nc(-c3cccs3)cc(-c3ccccc3)c2c1N (centres unmarked) [SW033291, 2-(butylsulfinyl)-4-phenyl-6-(thiophen-2-yl)thieno[2,3-b]pyridin-3-amine]",cross-sectional area of glycolytic (type IIb) fibers,[1],increase
same,cross-sectional area of oxidative (type IIa) fibers,[1],increase
same,myofiber cross-sectional area,"[1]; daily i.p., listed as SW",larger; also recorded: significantly augmented
same,absolute strength,[2],not statistically significant
same,muscle mass,[2],not statistically significant
same,endurance (time to exhaustion on a treadmill),[3],increases; also recorded: significant increase
same,"muscle mass (weight of dissected GA, TA, soleus)",[3],increases; also recorded: significant increase
same,muscle strength (plantar flexion tetanic force),[3],increases; also recorded: significant increase
same,endurance (time to exhaustion on a treadmill),[3]; listed as SW,increased
same,"muscle mass (weight of dissected GA, TA, soleus)",[3]; listed as SW,significant increase
same,muscle strength (plantar flexion tetanic force),[3]; listed as SW,significant increase
same,endurance,[4],increase
same,muscle force,[4],increase
same,muscle mass,[4],increase
